Data on one molecule can be found in article PMC12134183, “Structural analysis of full-length human transmembrane protein 94 argues against its classification as a P-type Mg^2+ ATPase” (Cell Discovery, 2025).

The target in the experiment is T1, TMEM94 (Homo sapiens, UniProt Q12767).
T1 construct: full-length, purified in detergent micelles; TMD extends to residue 1356; N-glycosylated
T1 sequence (Q12767 1-1356): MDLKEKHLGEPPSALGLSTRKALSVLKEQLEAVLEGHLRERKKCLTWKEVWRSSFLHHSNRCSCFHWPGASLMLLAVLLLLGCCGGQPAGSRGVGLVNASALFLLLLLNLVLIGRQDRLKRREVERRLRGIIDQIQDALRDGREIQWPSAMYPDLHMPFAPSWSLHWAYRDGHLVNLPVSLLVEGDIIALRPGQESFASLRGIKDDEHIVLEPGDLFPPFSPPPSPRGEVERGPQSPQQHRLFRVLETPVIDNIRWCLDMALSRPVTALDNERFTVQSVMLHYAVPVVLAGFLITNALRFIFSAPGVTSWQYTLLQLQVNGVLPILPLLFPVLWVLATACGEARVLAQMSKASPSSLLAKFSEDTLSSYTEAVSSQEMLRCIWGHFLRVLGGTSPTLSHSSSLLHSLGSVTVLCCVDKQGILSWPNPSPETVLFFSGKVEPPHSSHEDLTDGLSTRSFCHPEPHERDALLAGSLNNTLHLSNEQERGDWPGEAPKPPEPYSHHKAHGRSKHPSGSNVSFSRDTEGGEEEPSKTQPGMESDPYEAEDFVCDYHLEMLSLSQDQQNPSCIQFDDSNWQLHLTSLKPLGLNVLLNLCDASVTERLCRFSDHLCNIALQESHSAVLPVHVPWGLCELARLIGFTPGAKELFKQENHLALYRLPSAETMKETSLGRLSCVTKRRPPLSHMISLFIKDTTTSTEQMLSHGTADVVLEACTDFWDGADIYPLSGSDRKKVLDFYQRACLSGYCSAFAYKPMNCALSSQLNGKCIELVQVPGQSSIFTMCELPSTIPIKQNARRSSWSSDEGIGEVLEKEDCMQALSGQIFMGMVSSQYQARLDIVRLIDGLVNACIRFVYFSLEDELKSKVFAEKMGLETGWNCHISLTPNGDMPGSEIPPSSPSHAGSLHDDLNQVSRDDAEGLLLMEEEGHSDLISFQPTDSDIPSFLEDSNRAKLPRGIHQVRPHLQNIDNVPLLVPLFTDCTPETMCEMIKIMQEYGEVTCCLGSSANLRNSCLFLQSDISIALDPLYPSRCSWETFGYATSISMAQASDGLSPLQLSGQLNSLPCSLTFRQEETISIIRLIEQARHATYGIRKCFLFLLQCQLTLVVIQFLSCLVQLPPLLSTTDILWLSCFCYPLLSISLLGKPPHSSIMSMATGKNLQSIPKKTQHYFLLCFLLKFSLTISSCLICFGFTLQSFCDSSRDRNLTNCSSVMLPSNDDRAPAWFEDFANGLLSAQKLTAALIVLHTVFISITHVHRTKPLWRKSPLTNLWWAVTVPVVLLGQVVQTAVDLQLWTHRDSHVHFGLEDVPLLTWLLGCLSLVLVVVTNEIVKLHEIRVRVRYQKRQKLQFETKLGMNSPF
Description: microscale thermophoresis (MST). The format is binding. A general note: Microscale thermophoresis detects binding through changes in fluorescence in a small temperature gradient.

Usually Kd stands for a measure of binding affinity in units of concentration. A lower Kd goes with higher affinity. As for `Nc1ncnc2c1ncn2[C@@H]1O[C@H](COP(=O)(O)OP(=O)(O)CP(=O)(O)O)[C@@H](O)[C@H]1O` [AMPPCP], the equilibrium dissociation constant (Kd) was found to be 5.48 ± 1.41 µM.
